{"source": "patent US11884933B2", "about": "“Supported in vitro developed tissue culture and culturing methods” (IMBA—INSTITUT FÜR MOLEKULARE BIOTECHNOLOGIE GMBH, priority 2016, dated 2024)", "key": {"[1]": {"test_system": "H1 spheroids", "test": "Three day CHIR pulse in spheroids, germ layer staining", "assay_type": "cell-based, human", "conditions": "3-day CHIR pulse alone, day 40 spheroids", "experimental": "Organoids were fixed in 4% paraformaldehyde for 20 min at room temperature and washed with PBS three times for 10 min each at room temperature before allowing to sink in 30% sucrose at 4° C. […] Statistical analysis of quantifications performed from imaging data was performed using Student's t-test for significance."}, "[2]": {"test_system": "microfilament patterned organoids", "test": "CHIR pulse after neuroepithelial budding in microfilament organoids", "assay_type": "cell-based, human", "excerpt": "At day 3, half media was changed with EB media without bFGF and Y-27632. On day 5, EBs were moved with an angled cut P200 tip to 24-well low-attachment plates (Sigma, cat. #CLS3473) with neural induction media (NI) as previously described in WO 2014/090993 A1 (incorporated herein by reference) (FIG. 1a, step 3). Media was changed every other day. On day 11, or when polarized neural ectoderm was visible on the surface, organoids were transferred to droplet of Matrigel as previously described in WO 2014/090993 A1 but kept in NI media (FIG. 1a, transition from step 3 to 4). At day 13 (2 days after Matrigel embedding), media was changed to an improved differentiation media-A (IDMA): 1:1 of DMEM/F12 and Neurobasal (Invitrogen, cat. #21103049), 0.5% N2 supplement (Invitrogen, cat. #17502048), 2% B27-vitamin A (Invitrogen, cat. #12587010), 0.25% insulin solution (Sigma, cat. #I9278-5ML), 50 μM 2-mercaptoethanol, 1% Glutamax, 0.5% MEM-NEAA, and 1% Penicillin-Streptomycin (Sigma, cat. *P0781). Additionally, CHIR 99021 (Tocris, cat. #4423) at 3 μM was added from day 13 to 16. Media was changed every other day and organoids were moved to a spinning bioreactor or orbital shaker as described previously in WO 2014/090993 A1, on day 18 (FIG. 1a, step 5). After moving to the shaker, media was changed every 3-4 days. Shaking speed was calculated based on the throw of the shaker. […]"}, "[3]": {"test_system": "H9 enCORs", "test": "Cortical plate / basement membrane formation in enCORs with dissolved ECM components or GM6001", "assay_type": "cell-based, human", "method": "At day 20, media was changed to an improved differentiation+A (IDM+A): 1:1 of DMEM/F12 and Neurobasal, 0.5% N2 supplement, 2% B27+vitamin A, 0.25% insulin solution, 50 μM 2-mercaptoethanol, 1% Glutamax, 0.5% MEM-NEAA, 1% Penicillin-Streptomycin, 0.4 mM Vitamin C, and 1.49 g HEPES per 500 ml to control pH levels. Alternatively, media can be pH controlled with further bicarbonate buffering with the addition of 1 mg/ml sodium bicarbonate. At day 40, media was changed to IDM+A with 1 ml dissolved Matrigel per 50 ml media by slowly thawing the Matrigel on ice and addition to cold media to dissolve (FIG. 1a, step 6).\nFor treatment with matrix metalloprotease inhibitor GM6001 (Selleck Chemicals S7157), a final concentration of 3 μM was added beginning on day 30."}}, "note": "“Also recorded” adds a separate entry of the source.", "data": [{"molecule": "CCO", "note": "[ethanol]", "values": [{"measurement": "ethanol concentration in the media", "setting": "150 mM dose, within a day", "value": "approximately 60 mM"}, {"measurement": "course of ethanol concentration in the media", "setting": "all doses tested", "value": "progressive decrease in concentration over time"}, {"measurement": "equivalent blood alcohol content", "setting": "equivalent of approximately 60 mM", "value": 0.27, "unit": "% by volume"}]}, {"molecule": "Cc1c[nH]c(-c2cnc(NCCNc3ccc(C#N)cn3)nc2-c2ccc(Cl)cc2Cl)n1", "note": "[CHIR, CHIR99021]", "values": [{"measurement": "germ layer induction and organoid morphology", "setting": "[1]", "value": "did not influence germ layer induction or overall organoid morphology"}, {"measurement": "neuroepithelial bud morphology", "setting": "[2]; CHIR 3 μM, day 13 to 16, after Matrigel embedding", "value": "larger, more continuous buds of neuroepithelium; also recorded: dramatic lateral expansion of neuroepithelial tissues and the generation of larger lumens with surrounding continuous neuroepithelium"}, {"measurement": "dorsal brain region identity staining (Emx1, Tbr1, Tbr2)", "setting": "[2]; microfilament patterned organoids treated with CHIR", "value": "all large lobes of brain tissue within microfilament patterned organoids treated with CHIR to be dorsal cortex; also recorded: large Emx1+ regions; also recorded: virtually all large regions stained positive for dorsal cortical markers Tbr1 and Tbr2"}]}, {"molecule": "laminin", "values": [{"measurement": "CP formation", "setting": "[3]; dissolved laminin 35 μg/ml from day 40, 60-day enCORs", "value": "no evidence of CP formation; also recorded: did not recapitulate the extent of CP formation seen with Matrigel"}]}, {"molecule": "CNC(=O)[C@H](Cc1c[nH]c2ccccc12)NC(=O)[C@@H](CC(=O)NO)CC(C)C", "note": "[GM6001]", "values": [{"measurement": "CP formation", "setting": "[3]; GM6001 3 μM continuous from day 30, 60-day enCORs", "value": "no signs of CP formation; also recorded: did not result in CP formation by 60 days"}]}]}
